Results on four compounds are retold here after US20230310643A1, “EXTRACORPOREAL CLEARING TRAPS BASED ON INVERSE ELECTRON DEMAND DIELS-ALDER CYCLOADDITION FOR (PRE)-TARGETED THERAPY AND DIAGNOSTICS” (RIGSHOSPITALET, priority 2020, published 2023).

Where a name gives a salt, the structure may show the parent alone.

In one data set the test system is TCO-CC49. The data set can be described thus: Trapping of TCO-CC49 from PBS solution by tetrazine-agarose columns, eluate titrated with [111In]8. The following applies: n = 2; for % TE mean ± SD, 2nd evaluation, TCO-CC49: repeated 9 days after first evaluation, columns stored at 4° C.; for % TE mean ± SD, 1st evaluation, TCO-CC49: trapping efficiency, single pass, 100 μg/mL in PBS, 0.5 mL/min. The protocol: (§1) Tetrazine-agarose columns, two for each tetrazine, each prepared from 33 mg of dry NHS-agarose as described above (bed volume approx. 0.25 mL), and a control column prepared from tetrazine-free agarose, were equilibrated with 2-3 bed volumes of PBS. Antibody TCO-CC49 (approx. 1 TCO groups per 20 kDa molecular weight) or polymer TCO-KS254 (approx. 1 TCO group per 5 kDa molecular weight) were dissolved in PBS with to a mass concentration of 100 μg/mL. Aliquots of these solutions (0.4 mL) were pumped through the tetrazine-agarose columns at 0.5 mL/min pumping speed using an infusion pump (AL-1000, World Precision Instruments). When all solution had entered the resin bed, an aliquot of PBS (0.4 mL) was immediately added on top of it and pumped through the column at 0.5 mL/min. Total eluate (total volume approx. 0.8 mL) was collected and the amount of TCO-CC49 or TCO-KS254 was determined by ^111In-tetrazine ([^111In]8) titration.
(§2) For each column, trapping of both TCO-CC49 and TCO-KS254 was tested, and the column was rinsed with 2-3 volumes of PBS between tests. For pairs of columns with the same tetrazine, the order of testing (TCO-CC49 first or TCO-KS254 first) for one column was opposite to the order of testing for another column.
(§3) An aliquot of each trapping column eluate (6 μL) was mixed with an equal volume of 10 μM [111In]8 solution. Resulting mixtures were shaken at 37° C. for at least 1 hour to ensure full consumption of reactive TCO moieties. Then NuPage LDS Sample buffer was added to all mixtures according to the supplier's instructions, samples were heated for 10 min at 70° C. and applied on the NuPAGE 4-12% Bis-Tris SDS-PAGE gels. SDS-PAGE was run in MES-SDS buffer at 150V for 40-45 min. Separation was monitored by running SeeBlue® Plus2 Pre-Stained Protein Standard along with radiolabeled polymer samples. Control mixtures of 6 μL of [^111In]8 solution with 6 μL of PBS and reference mixtures of 6 μL of [^111In]8 solution and 6 μL of 50 μg/mL solutions of TCO-CC49 or TCO-KS254 were prepared and processed in the same manner. Developed gels were exposed against phosphor storage screens (PerkinElmer Multisensitive), which were then read in the Cyclone Plus phosphorimager (Packard Instruments, USA). Autoradiograms were quantified using Optiquant 3.0 software (Packard Instruments). Molecular weight reference ladder from the photo of the same gel aligned and merged to the autoradiogram is shown to the left in FIG. 8. Radioactivity found in the section of the gel corresponding to molecular weights of 60 kDa and above (using SeeBlue standards as reference) was considered polymer-bound or antibody-bound.
(§4) Trapping efficiency (TE) was calculated according to the formula:
(§5) % TE=100%×(1−% BTz/% BnoTz),
(§6) where % BTz is the percentage of polymer/antibody bound ^111In activity in the eluate collected from a column with tetrazine-conjugated agarose, while % BnoTz is the percentage of polymer/antibody bound ^111In activity in the eluate collected from a control column with tetrazine-free agarose.
(§7) For each column, evaluation of trapping efficiency for TCO-CC49 and TCO-KS254 was repeated 9 days after the first evaluation. In between evaluations, the columns were stored at 4° C. in phosphate-buffered saline with 0.1% vol/vol of ProClin™ 150 (Sigma-Aldrich).

Data set [1] can be described thus: Trapping of TCO-KS254 from PBS solution by tetrazine-agarose columns, eluate titrated with [111In]8. The following applies: for % TE mean ± SD, 2nd evaluation, TCO-KS254: repeated 9 days after first evaluation, columns stored at 4° C.; for % TE mean ± SD, 2nd evaluation, TCO-KS254 / % TE mean ± SD, 1st evaluation, TCO-KS254: n = 2; for % TE mean ± SD, 1st evaluation, TCO-KS254: trapping efficiency, single pass, 100 μg/mL in PBS, 0.5 mL/min; for Trapping efficiencies of TCO-KS254 polymer compared with resins with shorter or no linker (tetrazines 1, 3 and 5): comparison in words, longer linkers. On the procedure:
as §1, §2, §3, §4, §5, §6, §7

The nature of data set [2]: Dissolution of amino-tetrazine in phosphate-buffered saline. The following applies: PBS, 120 mM NaCl, 10 mM phosphate buffer pH 7.4. In kind it is physicochemical. The protocol:
Amino-tetrazine (1-6) was dissolved in phosphate-buffered saline (PBS, 120 mM NaCl, 10 mM phosphate buffer pH 7.4) to a concentration of 4 mM (tetrazine 5 could only be dissolved to a concentration of 2.7 mM). This solution was added to dry NHS-activated agarose resin (Pierce/Thermo Fisher Scientific) at the ratio of 1 mL solution per 60 mg resin. The resin was shaken in a plastic tube with a filter frit for 2-3 h at room temperature, then tetrazine solution was removed by vacuum filtration, and the resin was washed 3 times with PBS at the same mL-per-mg resin ratio. After that, Tris-HCl buffer (0.5M, pH 7.4) was added to the resin, the resin was shaken for 2-3 h at room temperature or overnight at 4° C. and washed 3 times with PBS. Control resin (tetrazine-free quenched agarose) was prepared in the same way, but pure PBS without amino-tetrazines was used for the initial incubation.

On to `NCc1ccc(-c2nncnn2)cc1.O=C(O)C(F)(F)F` [Tetrazine 3, (4-(1,2,4,5-Tetrazin-3-yl)phenyl)methanaminium trifluoroacetate], for which, in the data set with TCO-CC49, the “% TE mean ± SD, 2nd evaluation, TCO-CC49” value was found to be 96 ± 0.4% and the “% TE mean ± SD, 1st evaluation, TCO-CC49” value is given as 99 ± 1^ %. Also, in data set [1], the “% TE mean ± SD, 2nd evaluation, TCO-KS254” value stood at 78 ± 1% and the “% TE mean ± SD, 1st evaluation, TCO-KS254” value is 93 ± 10%.

As for `NCCCCCCCC(=O)Nc1ccc(-c2nnc(-c3ccccn3)nn2)nc1.O=C(O)C(F)(F)F` [Tetrazine 5, 8-amino—N-(6-(6-(pyridin-2-yl)-1,2,4,5-tetrazin-3-yl)pyridin-3-yl)octanamide 2,2,2-trifluoroacetate], in the data set with TCO-CC49, the “% TE mean ± SD, 2nd evaluation, TCO-CC49” value is 89 ± 3^ % and the “% TE mean ± SD, 1st evaluation, TCO-CC49” value was 98 ± 0.4%. Besides, in data set [1], the “% TE mean ± SD, 2nd evaluation, TCO-KS254” value stood at 67 ± 0.3% and the “% TE mean ± SD, 1st evaluation, TCO-KS254” value turned out to be 85 ± 5%. Moreover, the “Concentration to which the tetrazine could be dissolved” value in data set [2] amounted to 2700 µM.

Regarding `NCCOCCOCCOCCOCCOCCOCCOCCOCCOCCOCCOCCNC(=O)CCCC(=O)NCc1ccc(-c2nncnn2)cc1` [Tetrazine 4, 37,41-dioxo-41-((4-(1,2,4,5-Tetrazin-3-l)benzyl)amino)-3,6,9,12,15,18,21,24,27,30,33-undecaoxa-36-azahentetracontan-1-aminium trifluoroacetate], in the data set with TCO-CC49, the “% TE mean ± SD, 2nd evaluation, TCO-CC49” value stood at 92 ± 0.4% and the “% TE mean ± SD, 1st evaluation, TCO-CC49” value is reported as 96 ± 6^ %. Moreover, in data set [1], the “Trapping efficiencies of TCO-KS254 polymer compared with resins with shorter or no linker (tetrazines 1, 3 and 5)” value is given as “lower trapping efficiencies”; the “% TE mean ± SD, 2nd evaluation, TCO-KS254” value turned out to be 56 ± 2%; the “% TE mean ± SD, 1st evaluation, TCO-KS254” value worked out at 75 ± 0.2%.

Take `NCCOCCOCCOCCOCCOCCOCCOCCOCCOCCOCCOCCNC(=O)CCCC(=O)Nc1ccc(-c2nnc(-c3ccccn3)nn2)nc1.O=C(O)C(F)(F)F` [Tetrazine 6, 37,41-dioxo-41-((6-(6-(pyridin-2-yl)-1,2,4,5-tetrazin-3-yl)pyridin-3-yl)amino)-3,6,9,12,15,18,21,24,27,30,33-undecaoxa-36-azahentetracontan-1-aminium trifluoroacetate]: in the data set on TCO-CC49, the “% TE mean ± SD, 2nd evaluation, TCO-CC49” value was 72 ± 1^ % and the “% TE mean ± SD, 1st evaluation, TCO-CC49” value was 93 ± 7^ %. In addition, in data set [1], the “Trapping efficiencies of TCO-KS254 polymer compared with resins with shorter or no linker (tetrazines 1, 3 and 5)” value is given as “lower trapping efficiencies”; the “% TE mean ± SD, 2nd evaluation, TCO-KS254” value is 50 ± 6%; the “% TE mean ± SD, 1st evaluation, TCO-KS254” value is 64 ± 0%.
